Measurements as given in US10022328B2, “Dialkyl sulfosuccinate compositions, method of making, and method of use” (CYTEC INDUSTRIES INC., priority 2015, dated 2018).

Test: Contact angle of excipient solution in 0.1 M HCl with API pellet (sessile drop)
Assay type: physicochemical
Conditions: 0.1% excipient in 0.1 M HCl, 10-μL drops on pressed API pellet
Description: A factor which contributes to the bioavailability of active pharmaceutical ingredients (API's) is the wetting of the API by an aqueous solution at a physiological pH. Wetting can affect dissolution rates of the API in the aqueous solution. Wetting can be assessed by measuring the contact angle between an aqueous solution and an API. In these examples, the sessile drop method was used to determine contact angles. Pellets of API were produced using an X-press 3630 with a 35-mm pressing die. The API was pressed into a 35-mm diameter aluminum pan using the standard 30-ton cycle in order to produce a flat surface. Drops (10-μL) of a 0.1% test solution of an excipient were used. The test solution was 0.1 M HCl, to simulate physiological conditions in the human stomach.

| Compound | Contact Angle with Fenofibrate [°] | Contact Angle with Glipizide [°] | Contact Angle with Ibuprofen [°] | Contact Angle with Naproxen [°] | Contact Angle with Ritonavir [°] |
| --- | --- | --- | --- | --- | --- |
| CCCCCCCCCCCCOS(=O)(=O)[O-].[Na+] [SLS, Sodium lauryl sulfate] | 47 | 43 | 54 | 34 | 57 |
| Polyoxyethylene (20) sorbitan monolaurate [TWEEN ™ 20] | 58 | 42 | 45 | 48 | 40 |
| Polyoxyethylene (20) sorbitan monooleate [TWEEN ™ 80] | 70 | 55 | 68 | 52 | 51 |
